{
  "source": "paper PMC7064328",
  "about": "(Environmental Health Perspectives, 2020)",
  "system": "embryo–placenta unit",
  "experiment": "Embryo/placental growth metrics (mixed-effect models)",
  "format": "in vivo, mouse (CD-1)",
  "source_text": "From each uterus, first, viable embryos and their matched placentas were collected in succession within a horn and immediately snap frozen ( n=2–5 per litter ), and subsequent embryos were collected for growth measurements ( n=2–11 per litter ). Additional placentas were collected and placed in 4% paraformaldehyde (PFA) for histological analysis (Block 2 only). Amniotic fluid was collected by needle aspiration from litters euthanized at E11.5 and snap frozen in liquid nitrogen. Embryo livers were collected from litters euthanized at E17.5 and snap frozen in liquid nitrogen. Dam livers were weighed, a portion of the left lateral lobe was placed in 4% PFA for histology, and another portion of the same lobe was snap frozen in liquid nitrogen. A third liver section was obtained from Block 2 dams and fixed in McDowell and Trump’s fixative for electron microscopy (EM). Gross lesions were collected when observed and placed in 4% PFA for histology. Dam kidneys were removed, a cross section was prepared from the right kidney, a longitudinal section was prepared from the left kidney, and both sections were fixed in 4% PFA for histological analysis.\nGross observations were recorded at necropsy. Embryo sex was determined by polymerase chain reaction (PCR) amplification of the Sry gene (forward, 5′-[…]-3′, and reverse, 3′-[…]-5′) using a snipped portion of tissue (TransnetYX®, Inc.). Embryos and their placentas were weighed separately as wet tissue. Images of embryos were obtained on a Leica Z16 APO imaging scope, and embryo length was measured as snout-to-rump distance using FIJI ([Schindelin et al. 2012]) and Zen 2 Blue (Zeiss).\nEmbryo and placental metrics were analyzed using mixed-effect models and included a priori fixed effects of treatment group and litter size and a random-effects term for the dam using the lme4 package. Embryo and placental metrics included embryo weight, embryo length, placental weight, and embryo:placenta weight ratios, a meaningful predictor of fetal birth outcomes in humans ([Hayward et al. 2016]). To account for potential introduction of random effects, the study block (Block 1 or Block 2) and experimenter handling of embryo/placental tissues (Experimenter A or Experimenter B) were included as additional random effects. Models were fit in a stepwise procedure for random effects, and final models included treatment group and litter size as fixed effects using the lmerTest package ([Kuznetsova et al. 2017]). All final models included dam as a random effect but were allowed to vary in the inclusion of experimenter and experimental block random effects based on likelihood ratio test results. Point estimates and 95% CIs were determined from the final model using the Wald method. The number of individual observations for each outcome (embryo weight, placenta weight, and embryo:placenta weight ratio) and the number of litters evaluated in the mixed-effect models are shown in Table S1.",
  "data": [
    {"smiles": "N.O=C(O)C(F)(OC(F)(F)C(F)(F)C(F)(F)F)C(F)(F)F", "note": "(centres unmarked) [GenX, ammonium 2,3,3,3-tetrafluoro-2-(heptafluoropropoxy)propanoate]", "values": [
      {"measurement": "Embryo length, adjusted estimate (95% CI)", "setting": "E11.5, 2 mg/kg/d", "value": "17.6 (14.7, 20.5) mm"},
      {"measurement": "Embryo weight, adjusted estimate (95% CI)", "setting": "E11.5, 2 mg/kg/d", "value": "49.9 (16.7, 83.1) mg"},
      {"measurement": "Placental weight, adjusted estimate (95% CI)", "setting": "E11.5, 2 mg/kg/d", "value": "34.0 (0.1, 67.8) mg"},
      {"measurement": "Embryo length, adjusted estimate (95% CI)", "setting": "E11.5, 10 mg/kg/d", "value": "17.4 (14.5, 20.3) mm"},
      {"measurement": "Embryo weight, adjusted estimate (95% CI)", "setting": "E11.5, 10 mg/kg/d", "value": "45.2 (12.0, 78.3) mg"},
      {"measurement": "Placental weight, adjusted estimate (95% CI)", "setting": "E11.5, 10 mg/kg/d", "value": "38.4 (4.5, 72.2) mg"},
      {"measurement": "Embryo length, adjusted estimate (95% CI)", "setting": "E17.5, 2 mg/kg/d", "value": "32.7 (28.7, 36.6) mm"},
      {"measurement": "Embryo weight, adjusted estimate (95% CI)", "setting": "E17.5, 2 mg/kg/d", "value": "1369.8 (1111.3, 1628.4) mg"},
      {"measurement": "Placental weight, adjusted estimate (95% CI)", "setting": "E17.5, 2 mg/kg/d", "value": "137.1 (105.6, 168.6) mg"},
      {"measurement": "Embryo length, adjusted estimate (95% CI)", "setting": "E17.5, 10 mg/kg/d", "value": "33.8 (29.8, 37.7) mm"},
      {"measurement": "Embryo weight, adjusted estimate (95% CI)", "setting": "E17.5, 10 mg/kg/d", "value": "1337.0 (1077.5, 1596.4) mg"},
      {"measurement": "Placental weight, adjusted estimate (95% CI)", "setting": "E17.5, 10 mg/kg/d", "value": "146.3 (114.7, 177.9) mg"}
    ]},
    {"smiles": "O=C(O)C(F)(F)C(F)(F)C(F)(F)C(F)(F)C(F)(F)C(F)(F)C(F)(F)F", "note": "[PFOA, Perfluorooctanoic acid]", "values": [
      {"measurement": "Embryo weight decrease relative to controls", "setting": "5 mg/kg/d", "value": 9.4, "unit": "%"},
      {"measurement": "Embryo length, adjusted estimate (95% CI)", "setting": "E11.5, 1 mg/kg/d", "value": "17.5 (14.5, 20.4) mm"},
      {"measurement": "Embryo weight, adjusted estimate (95% CI)", "setting": "E11.5, 1 mg/kg/d", "value": "44.7 (11.1, 78.2) mg"},
      {"measurement": "Embryo:Placental Weight Ratio, adjusted estimate (95% CI)", "setting": "E11.5, 1 mg/kg/d", "value": "1.19 (0.62, 1.76)"},
      {"measurement": "Placental weight, adjusted estimate (95% CI)", "setting": "E11.5, 1 mg/kg/d", "value": "30.5 (-3.8, 64.7) mg"},
      {"measurement": "Embryo length, adjusted estimate (95% CI)", "setting": "E11.5, 5 mg/kg/d", "value": "18.5 (15.6, 21.4) mm"},
      {"measurement": "Embryo weight, adjusted estimate (95% CI)", "setting": "E11.5, 5 mg/kg/d", "value": "45.3 (11.8, 78.7) mg"},
      {"measurement": "Embryo:Placental Weight Ratio, adjusted estimate (95% CI)", "setting": "E11.5, 5 mg/kg/d", "value": "1.21 (0.64, 1.77)"},
      {"measurement": "Placental weight, adjusted estimate (95% CI)", "setting": "E11.5, 5 mg/kg/d", "value": "31.2 (-2.9, 65.3) mg"},
      {"measurement": "Embryo length, adjusted estimate (95% CI)", "setting": "E17.5, 1 mg/kg/d", "value": "33.6 (29.6, 37.6) mm"},
      {"measurement": "Embryo weight, adjusted estimate (95% CI)", "setting": "E17.5, 1 mg/kg/d", "value": "1350.7 (1091.9, 1609.4) mg"},
      {"measurement": "Embryo:Placental Weight Ratio, adjusted estimate (95% CI)", "setting": "E17.5, 1 mg/kg/d", "value": "11.1 (8.0, 14.3)"},
      {"measurement": "Placental weight, adjusted estimate (95% CI)", "setting": "E17.5, 1 mg/kg/d", "value": "129.7 (98.2, 161.2) mg"},
      {"measurement": "Embryo BW lower than vehicle control embryos (mixed-effect model estimate)", "setting": "E17.5, 5 mg/kg/d", "value": 129, "unit": "mg"},
      {"measurement": "Embryo length, adjusted estimate (95% CI)", "setting": "E17.5, 5 mg/kg/d", "value": "31.2 (27.2 35.3) mm"},
      {"measurement": "Embryo weight, adjusted estimate (95% CI)", "setting": "E17.5, 5 mg/kg/d", "value": "1249.5 (991.0, 1508.0) mg"},
      {"measurement": "Embryo:Placental Weight Ratio, adjusted estimate (95% CI)", "setting": "E17.5, 5 mg/kg/d", "value": "8.5 (5.4, 11.6)"},
      {"measurement": "Estimated increase in placental weight relative to controls", "setting": "E17.5, 5 mg/kg/d", "value": 21, "unit": "mg"},
      {"measurement": "Placental weight, adjusted estimate (95% CI)", "setting": "E17.5, 5 mg/kg/d", "value": "151.9 (120.5, 183.4) mg"},
      {"measurement": "Shift in embryo weight", "setting": "E17.5, 5 mg/kg/d", "value": -0.129, "unit": "g"}
    ]}
  ]
}
